Source: US20250282820A1, “PEPTIDE COMPLEX HAVING TRKB BINDING ACTIVITY” (PEPTIDREAM INC, priority 2022, published 2025)
*1 amine or outer side, *2 acyl side, *3 side chain or, on linkers, in order; H or OH if unused. Where a SMILES comes first, the peptide text is derived from it. Bridges are numbered along the chain shown (N, C = ends). Roman numbers before positions name the chains, in order. [ ]: non-standard residue; d: D form. ξ: configuration not given here. CO(CH2CH2O)13CH2CH2CO = O=C(CCOCCOCCOCCOCCOCCOCCOCCOCCOCCOCCOCCOCCOCCC(=O)[*:2])[*:1]; X1 = O=C(OCCOCCOCCOCCOCCOCCOCCOCCOCCOCCOCCOCCOC(=O)[*:2])[*:1]; PEG8 = NCCOCCOCCOCCOCCOCCOCCOCCOCCC(=O)O; 3Pal = N[C@@H](Cc1cccnc1)C(=O)O; X2 = O=C(CCOCCC(=O)[*:2])[*:1]; ξP = O=C(O)C1CCCN1

How the values were obtained:
Format in all cases: cell-based
TrkB = TrkB (Homo sapiens, UniProt Q16620); experiment: PathHunter eXpress TrkB Functional Assay (phosphorylation of TrkB); conditions: stimulation for 3 hours; for Emax: maximum signal induced by BDNF = 100%
TrkB, sequence (Q16620 32-822): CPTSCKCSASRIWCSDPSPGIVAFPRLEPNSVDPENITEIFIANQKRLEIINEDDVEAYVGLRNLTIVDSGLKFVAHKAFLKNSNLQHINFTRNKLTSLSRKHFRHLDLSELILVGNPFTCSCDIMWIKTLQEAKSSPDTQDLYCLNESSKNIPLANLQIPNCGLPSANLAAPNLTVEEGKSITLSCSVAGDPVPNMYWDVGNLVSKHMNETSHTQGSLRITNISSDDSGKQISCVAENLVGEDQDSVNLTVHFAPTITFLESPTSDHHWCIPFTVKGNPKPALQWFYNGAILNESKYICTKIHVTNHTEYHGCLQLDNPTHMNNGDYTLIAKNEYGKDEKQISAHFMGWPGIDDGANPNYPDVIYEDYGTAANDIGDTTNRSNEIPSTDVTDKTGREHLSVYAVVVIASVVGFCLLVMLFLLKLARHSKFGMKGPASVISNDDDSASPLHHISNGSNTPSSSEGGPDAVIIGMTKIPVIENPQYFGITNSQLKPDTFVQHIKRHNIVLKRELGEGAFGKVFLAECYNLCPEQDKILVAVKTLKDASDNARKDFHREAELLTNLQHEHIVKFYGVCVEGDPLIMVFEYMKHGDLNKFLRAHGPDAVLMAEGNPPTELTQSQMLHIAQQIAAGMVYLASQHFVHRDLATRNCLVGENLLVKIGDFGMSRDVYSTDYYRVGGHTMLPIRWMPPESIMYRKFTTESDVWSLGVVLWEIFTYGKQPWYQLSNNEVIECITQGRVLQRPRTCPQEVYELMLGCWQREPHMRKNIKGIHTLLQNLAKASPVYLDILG
How it was run: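 PathHunter TrkB cells, cultured 48 h, were stimulated 3 h with peptide or BDNF, then detection reagent added for 60 min at room temperature; luminescence read. Activity (%) scaled from unstimulated (0%) to maximal BDNF signal (100%); peptides tested over 0.006104-100 nM, 0.032-100 nM or 0.01-10 nM ranges.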

[1] = molecular target: T1, TrkB (CellSensor TrkB-NFAT-bla CHO-K1 Cell) (Homo sapiens, UniProt Q16620); experiment: NFAT transcriptional reporter assay for TrkB agonist activity; conditions: class = peptide concentration giving 50% or more activity; BDNF maximum signal = 100%, no stimulation = 0%; 5 hours culture
T1 construct: host or cells: CHO-K1 (CellSensor TrkB-NFAT-bla CHO-K1)
T1 sequence (Q16620 32-822): as above
Method: To evaluate the TrkB activation potency of the TrkB agonist peptide of the present invention, transcriptional activity was examined using transcriptional reporters. The CellSensor (registered trademark) TrkB-NFAT-bla CHO-K1 Cell (Invitrogen) used in the AlphaLISA assay was cultured in the medium above. After the cells were detached using Accutase (Innovative Cell Technologies), the cells were suspended in an assay medium, wherein Blasticidin and Zeocin were removed, then seeded into a 96-well plate for adherent cultures at 12,500 cells per well and cultured overnight. Then, BDNF or a peptide was added thereto, and the cells were further cultured in a CO2 incubator for 5 hours. After the 96-well plate was removed from the incubator and brought to room temperature, a detection reagent (LiveBLAzer (registered trademark)-FRET B/G (CCF4-AM) Substrate Mixture) was added while protected from the light, and the 96-well plate was incubated while protected from the light in a moisture box with a lid for 2 hours. For signal detection, a EnVision 2104 Multilabel Plate Reader (PerkinElmer) was used, and the ratio of fluorescence emission value (460 nm/535 nm) was calculated. The obtained numerical values were analyzed with GraphPad Prism, and the activity (%) was calculated with the maximum value of the signals induced by BDNF as 100% and a signal with no stimulation as 0%. The peptide with 50% or more activity when 1 nM of the peptide was added was evaluated as A, the peptide with 50% or more activity when 10 nM of the peptide was added was evaluated as B, and the peptide with 50% or more activity when 100 nM of the peptide was added was evaluated as C. Those that were not evaluated were listed as not tested.
The BDNF was evaluated at 7 points (0.0024 nM to 10 nM) from 10 nM using 4-fold dilutions.
(§1) For dimer structures Nos. 1 to 3, the peptide was evaluated at 1 nM, 10 nM, and 100 nM, and, for other dimer structure numbers, the peptide was evaluated at 0.1 nM, 1 nM, and 10 nM. When creating the concentration dependence curve, the BDNF and the peptides were evaluated at 7 points (0.006 nM to 100 nM) from 25 nM using 4-fold dilutions.

[2] = molecular target: T1, TrkB (CellSensor TrkB-NFAT-bla CHO-K1 Cell); experiment: pERK1/2 AlphaLISA assay (phosphorylation of ERK) for TrkB agonist activity; conditions: class = peptide concentration giving 50% or more activity; BDNF maximum signal = 100%, no stimulation = 0%; 15 minutes of stimulation
Method: To evaluate the TrkB activation potency of the TrkB agonist peptide of the present invention, the phosphorylation of ERK was examined. CellSensor (registered trademark) TrkB-NFAT-bla CHO-K1 Cell (Invitrogen) was cultured in DMEM, high glucose, GlutaMAX (registered trademark) Supplement, and pyruvate (Thermo), comprising 10% FBS (Thermo) and 1× Non-essential amino acids (Thermo), 25 mM HEPES (Thermo), 50 ug/mL Gentamicin, 5 ug/mL Blasticidin (Thermo), and 200 ug/mL Zeocin (Thermo). After the cells were detached using Accutase (Innovative Cell Technologies), they were seeded into a 96-well plate for adherent cultures at 12,500 cells per well and cultured overnight. The next day, for starvation, the culture solution above was replaced with a nutrient starvation medium comprising 0.1% BSA (Sigma), wherein FBS, Blasticidin, and Zeocin were removed from the culture medium, and culturing was performed for 4 hours. Thereafter, Recombinant Human BDNF Protein (R&D Systems) or a peptide was added, and after 15 minutes of stimulation, cells were lysed in the Lysis Buffer provided with the AlphaLISA SureFire Ultra p-Erk1/2 (Thr202/Tyr204) assay kit (PerkinElmer). The assay was performed according to the kit protocol. The signals were detected using a SpectraMax Paradigm Multi-Mode Microplate Reader (Molecular Devices). The obtained signals were analyzed with GraphPad Prism, and the activity (%) was calculated with the maximum value of the signals induced by BDNF as 100% and a signal with no stimulation as 0%. The peptide with 50% or more activity when 1 nM of the peptide was added was evaluated as A, and the peptide with 50% or more activity when 10 nM of the peptide was added was evaluated as B.
The BDNF was evaluated at 8 points (0.0006 nM to 10 nM) from 10 nM using 4-fold dilutions.
as §1, with “8” for “7”, “100” for “25”

Row | SMILES | Emax (TrkB) [%] | NFAT Assay Results [1] | pERK (aLISA) Assay Results [2] | EC50 (TrkB) [nM]
1 | CC(C)[C@@H]1NC(=O)[C@H](Cc2cccnc2)NC(=O)[C@H](CCC(=O)O)NC(=O)[C@H](CO)NC(=O)[C@H](Cc2ccc(O)cc2)NC(=O)[C@H]([C@@H](C)O)NC(=O)[C@@H]2CCCN2C(=O)[C@H](Cc2c[nH]c3ccccc23)NC(=O)[C@H](Cc2cccnc2)NC(=O)[C@H](Cc2ccc(O)cc2)NC(=O)[C@@H]2CCCN2C(=O)[C@H](CO)NC(=O)[C@H](Cc2ccccc2)NC(=O)CSC[C@@H](C(=O)NCC(=O)N[C@@H](CCCCNC(=O)OCCOCCOCCOCCOCCOCCOCCOCCOCCOCCOCCOCCOC(=O)NCCCC[C@H](NC(=O)CNC(=O)[C@@H]2CSCC(=O)N[C@@H](Cc3ccccc3)C(=O)N[C@@H](CO)C(=O)N3CCC[C@H]3C(=O)N[C@@H](Cc3ccc(O)cc3)C(=O)N[C@@H](Cc3cccnc3)C(=O)N[C@@H](Cc3c[nH]c4ccccc34)C(=O)N3CCC[C@H]3C(=O)N[C@@H]([C@@H](C)O)C(=O)N[C@@H](Cc3ccc(O)cc3)C(=O)N[C@@H](CO)C(=O)N[C@@H](CCC(=O)O)C(=O)N[C@@H](Cc3cccnc3)C(=O)N[C@@H](C(C)C)C(=O)N[C@@H](CCC(=O)O)C(=O)N2)C(N)=O)C(N)=O)NC(=O)[C@H](CCC(=O)O)NC1=O [compound 55] (I: {CH2CO}-FSPY[3Pal]WPTYSE[3Pal]VECGK-NH2 / II: {CH2CO}-FSPY[3Pal]WPTYSE[3Pal]VECGK-NH2; linker I:17-II:17 via X1; thioether I:N-I:15, II:N-II:15) | 104 | A (The peptide with 50% or more activity when 1 nM of the peptide was added was evaluated as A) | A (The peptide with 50% or more activity when 1 nM of the peptide was added was evaluated as A) | –
2 | CC(C)[C@@H]1NC(=O)[C@H](Cc2cccnc2)NC(=O)[C@H](CCC(=O)O)NC(=O)[C@H](CO)NC(=O)[C@H](Cc2ccc(O)cc2)NC(=O)[C@H]([C@@H](C)O)NC(=O)[C@@H]2CCCN2C(=O)[C@H](Cc2c[nH]c3ccccc23)NC(=O)[C@H](Cc2cccnc2)NC(=O)[C@H](Cc2ccc(O)cc2)NC(=O)[C@@H]2CCCN2C(=O)[C@H](CCC(=O)O)NC(=O)[C@H](Cc2ccccc2)NC(=O)CSC[C@@H](C(=O)NCC(=O)NCCOCCOCCOCCOCCOCCOCCOCCOCCC(=O)NCCCC[C@H](NC(=O)CCOCCOCCOCCOCCOCCOCCOCCOCCNC(=O)CNC(=O)[C@@H]2CSCC(=O)N[C@@H](Cc3ccccc3)C(=O)N[C@@H](CCC(=O)O)C(=O)N3CCC[C@H]3C(=O)N[C@@H](Cc3ccc(O)cc3)C(=O)N[C@@H](Cc3cccnc3)C(=O)N[C@@H](Cc3c[nH]c4ccccc34)C(=O)N3CCC[C@H]3C(=O)N[C@@H]([C@@H](C)O)C(=O)N[C@@H](Cc3ccc(O)cc3)C(=O)N[C@@H](CO)C(=O)N[C@@H](CCC(=O)O)C(=O)N[C@@H](Cc3cccnc3)C(=O)N[C@@H](C(C)C)C(=O)N[C@@H](CO)C(=O)N2)C(N)=O)NC(=O)[C@H](CO)NC1=O [compound 18] (I: {CH2CO}-FEPY[3Pal]WPTYSE[3Pal]VSCG[PEG8]K-NH2 / II: {CH2CO}-FEPY[3Pal]WPTYSE[3Pal]VSCG[PEG8]; amide I:18-II:C (inferred); thioether I:N-I:15, II:N-II:15 (inferred)) | 93 | A (The peptide with 50% or more activity when 1 nM of the peptide was added was evaluated as A) | A (The peptide with 50% or more activity when 1 nM of the peptide was added was evaluated as A) | –
3 | CC(C)[C@@H]1NC(=O)[C@H](Cc2cccnc2)NC(=O)[C@H](CCC(=O)O)NC(=O)[C@H](CO)NC(=O)[C@H](Cc2ccc(O)cc2)NC(=O)[C@H]([C@@H](C)O)NC(=O)[C@@H]2CCCN2C(=O)[C@H](Cc2c[nH]c3ccccc23)NC(=O)[C@H](Cc2cccnc2)NC(=O)[C@H](Cc2ccc(O)cc2)NC(=O)[C@@H]2CCCN2C(=O)[C@H](CO)NC(=O)[C@H](Cc2ccccc2)NC(=O)CSC[C@@H](C(=O)NCC(=O)NCCOCCOCCOCCOCCOCCOCCOCCOCCC(=O)N[C@@H](CCCCNC(=O)CCOCCC(=O)NCCCC[C@H](NC(=O)CCOCCOCCOCCOCCOCCOCCOCCOCCNC(=O)CNC(=O)[C@@H]2CSCC(=O)N[C@@H](Cc3ccccc3)C(=O)N[C@@H](CO)C(=O)N3CCC[C@H]3C(=O)N[C@@H](Cc3ccc(O)cc3)C(=O)N[C@@H](Cc3cccnc3)C(=O)N[C@@H](Cc3c[nH]c4ccccc34)C(=O)N3CCC[C@H]3C(=O)N[C@@H]([C@@H](C)O)C(=O)N[C@@H](Cc3ccc(O)cc3)C(=O)N[C@@H](CO)C(=O)N[C@@H](CCC(=O)O)C(=O)N[C@@H](Cc3cccnc3)C(=O)N[C@@H](C(C)C)C(=O)N[C@@H](CCC(=O)O)C(=O)N2)C(N)=O)C(N)=O)NC(=O)[C@H](CCC(=O)O)NC1=O [compound 33] (I: {CH2CO}-FSPY[3Pal]WPTYSE[3Pal]VECG[PEG8]K-NH2 / II: {CH2CO}-FSPY[3Pal]WPTYSE[3Pal]VECG[PEG8]K-NH2; linker I:18-II:18 via X2; thioether I:N-I:15, II:N-II:15) | 96 | A (The peptide with 50% or more activity when 1 nM of the peptide was added was evaluated as A) | A (The peptide with 50% or more activity when 1 nM of the peptide was added was evaluated as A) | –
4 | CC(C)[C@@H]1NC(=O)[C@H](Cc2cccnc2)NC(=O)[C@H](CCC(=O)O)NC(=O)[C@H](CO)NC(=O)[C@H](Cc2ccc(O)cc2)NC(=O)[C@H]([C@@H](C)O)NC(=O)C2CCCN2C(=O)[C@H](Cc2c[nH]c3ccccc23)NC(=O)[C@H](Cc2cccnc2)NC(=O)[C@H](Cc2ccc(O)cc2)NC(=O)[C@@H]2CCCN2C(=O)[C@H](CO)NC(=O)[C@H](Cc2ccccc2)NC(=O)CSC[C@@H](C(=O)NCC(=O)N[C@@H](CCCCNC(=O)CCOCCOCCOCCOCCOCCOCCOCCOCCOCCOCCOCCOCCOCCC(=O)NCCCC[C@H](NC(=O)CNC(=O)[C@@H]2CSCC(=O)N[C@@H](Cc3ccccc3)C(=O)N[C@@H](CO)C(=O)N3CCC[C@H]3C(=O)N[C@@H](Cc3ccc(O)cc3)C(=O)N[C@@H](Cc3cccnc3)C(=O)N[C@@H](Cc3c[nH]c4ccccc34)C(=O)N3CCC[C@H]3C(=O)N[C@@H]([C@@H](C)O)C(=O)N[C@@H](Cc3ccc(O)cc3)C(=O)N[C@@H](CO)C(=O)N[C@@H](CCC(=O)O)C(=O)N[C@@H](Cc3cccnc3)C(=O)N[C@@H](C(C)C)C(=O)N[C@@H](CCC(=O)O)C(=O)N2)C(N)=O)C(N)=O)NC(=O)[C@H](CCC(=O)O)NC1=O (stereo partly shown) [Dimer Structure No. 48] (I: {CH2CO}-FSPY[3Pal]WPTYSE[3Pal]VECGK-NH2 / II: {CH2CO}-FSPY[3Pal]W[ξP]TYSE[3Pal]VECGK-NH2; linker I:17-II:17 via CO(CH2CH2O)13CH2CH2CO; thioether I:N-I:15, II:N-II:15) | 89 | B (the peptide with 50% or more activity when 10 nM of the peptide was added was evaluated as B) | B (the peptide with 50% or more activity when 10 nM of the peptide was added was evaluated as B) | 0.8 to 4
